{"source": "patent US20230146675A1", "about": "“PYRIMIDO[5,4-d]PYRIMIDINE DERIVATIVES AS ENT INHIBITORS FOR THE TREATMENT OF CANCERS, AND COMBINATION THEREOF WITH ADENOSINE RECEPTOR ANTAGONISTS” (ITEOS BELGIUM SA, priority 2020, published 2023)", "data": [{"molecular_target": "T1, human ENT1 (Homo sapiens, UniProt Q99808)", "T1 sequence (Q99808 1-456)": "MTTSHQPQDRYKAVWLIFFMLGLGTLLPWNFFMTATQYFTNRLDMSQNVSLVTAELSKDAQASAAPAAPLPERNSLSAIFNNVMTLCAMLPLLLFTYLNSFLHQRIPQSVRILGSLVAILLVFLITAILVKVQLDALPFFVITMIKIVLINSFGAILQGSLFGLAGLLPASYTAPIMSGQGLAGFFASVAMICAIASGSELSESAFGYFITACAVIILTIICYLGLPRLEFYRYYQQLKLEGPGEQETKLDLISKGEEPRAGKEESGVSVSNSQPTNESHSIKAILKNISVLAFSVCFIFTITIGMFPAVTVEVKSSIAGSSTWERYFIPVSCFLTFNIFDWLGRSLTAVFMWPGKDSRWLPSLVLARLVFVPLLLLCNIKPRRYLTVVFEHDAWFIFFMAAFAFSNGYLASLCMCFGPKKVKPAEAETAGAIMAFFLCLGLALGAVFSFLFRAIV", "assay": "ENT1 binding assay (competition with Sahenta-DY647 on JAR cells)", "set-up": "JAR cells expressing ENT1 were bought from ATCC; host or cells: JAR cells", "conditions": "binned IC50", "outline": "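JAR cells were incubated with test compounds and the fluorescent ligand Sahenta-DY647 in competition. Plates were washed twice by centrifugation (4 min, 400 rcf, 4 °C). Binding potency was derived from the final fluorescence.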", "units": {"IC50": "µM"}, "values": [{"smiles": "COCCN(CCOC)c1nc(N2CCC(S(C)(=O)=O)CC2)c2nc(N(CCOC)CCOC)nc(N3CCC(OC)CC3)c2n1", "note": "[Compound 78, N2,N2,N6,N6-tetrakis(2-methoxyethyl)-4-(4-methoxypiperidin-1-yl)-8-(4-(methylsulfonyl)piperidin-1-yl)pyrimido[5,4-d]pyrimidine-2,6-diamine]", "IC50": "0.5 to 1"}, {"smiles": "COCCN(CCOC)c1nc(N2CCN(C)C(=O)C2)c2nc(N3CCc4[nH]cnc4C3)nc(N3CCC(OC)CC3)c2n1", "note": "[Compound 291, 4-(2-(bis(2-methoxyethyl)amino)-8-(4-methoxypiperidin-1-yl)-6-(1,4,6,7-tetrahydro-5H-imidazo[4,5-c]pyridin-5-yl)pyrimido[5,4-d]pyrimidin-4-yl)-1-methylpiperazin-2-one]", "IC50": "0.5 to 1"}, {"smiles": "COCCN(CCOC)c1nc(N2CCC(OC)CC2)c2nc(N(CCOC)CCOC)nc(NCc3cnco3)c2n1", "note": "[Compound 60, N2,N2,N6,N6-tetrakis(2-methoxyethyl)-8-(4-methoxypiperidin-1-yl)-N4-(oxazol-5-ylmethyl)pyrimido[5,4-d]pyrimidine-2,4,6-triamine]", "IC50": "0.5 to 1"}, {"smiles": "COCCN(CCOC)c1nc(N2CCC(OC)CC2)c2nc(N3CCc4[nH]cnc4C3)nc(N3CCN(C)C(=O)C3)c2n1", "note": "[Compound 290, 4-(6-(bis(2-methoxyethyl)amino)-8-(4-methoxypiperidin-1-yl)-2-(1,4,6,7-tetrahydro-5H-imidazo[4,5-c]pyridin-5-yl)pyrimido[5,4-d]pyrimidin-4-yl)-1-methylpiperazin-2-one]", "IC50": "0.5 to 1"}, {"smiles": "COCCN(CCOC)c1nc(N2CCN(C)C(=O)C2)c2nc(N(CCOC)CCOC)nc(N(C)Cc3cccc(C#N)c3)c2n1", "note": "[Compound 237, 3-(((2,6-bis(bis(2-methoxyethyl)amino)-8-(4-methyl-3-oxopiperazin-1-yl)pyrimido[5,4-d]pyrimidin-4-yl)(methyl)amino)methyl)benzonitrile]", "IC50": "< 0.1"}, {"smiles": "COCCN(CCOC)c1nc(N2CCN(C)C(=O)C2)c2nc(N3CCn4ccnc4C3)nc(N3CCC(OC)CC3)c2n1", "note": "[Compound 296, 4-(2-(bis(2-methoxyethyl)amino)-6-(5,6-dihydroimidazo[1,2-a]pyrazin-7(8H)-yl)-8-(4-methoxypiperidin-1-yl)pyrimido[5,4-d]pyrimidin-4-yl)-1-methylpiperazin-2-one]", "IC50": "0.1 to 0.5"}, {"smiles": "COCCN(CCOC)c1nc(N2CCC(OC)CC2)c2nc(OCc3ccc(C)nc3)nc(N3CCC(OC)CC3)c2n1", "note": "[Compound 263, N,N-bis(2-methoxyethyl)-4,8-bis(4-methoxypiperidin-1-yl)-6-((6-methylpyridin-3-yl)methoxy)pyrimido[5,4-d]pyrimidin-2-amine]", "IC50": "0.1 to 0.5"}, {"smiles": "COCCN(CCOC)c1nc(N2CCN(c3nc(C)ns3)CC2)c2nc(N(CCOC)CCOC)nc(N3CCC(OC)CC3)c2n1", "note": "[Compound 123, N2,N2,N6,N6-tetrakis(2-methoxyethyl)-4-(4-methoxypiperidin-1-yl)-8-(4-(3-methyl-1,2,4-thiadiazol-5-yl)piperazin-1-yl)pyrimido[5,4-d]pyrimidine-2,6-diamine]", "IC50": "0.1 to 0.5"}, {"smiles": "CCCN(C)c1nc(N(CCOC)CCOC)nc2c(N3CC(O)(C(F)(F)F)C3)nc(N(CCOC)CCOC)nc12", "note": "[Compound 13, 1-(2,6-bis(bis(2-methoxyethyl)amino)-8-(methyl(propyl)amino)pyrimido[5,4-d]pyrimidin-4-yl)-3-(trifluoromethyl)azetidin-3-ol]", "IC50": "< 0.1"}, {"smiles": "COCCN(CCOC)c1nc(N2CCC(OC)CC2)c2nc(N(CCOC)CCOC)nc(N(C)CCO)c2n1", "note": "[Compound 112, 2-((2,6-bis(bis(2-methoxyethyl)amino)-8-(4-methoxypiperidin-1-yl)pyrimido[5,4-d]pyrimidin-4-yl)(methyl)amino)ethanol]", "IC50": "0.1 to 0.5"}, {"smiles": "COCCN(CCOC)c1nc(N2CCC(OC)CC2)c2nc(N(CCOC)CCOC)nc(NCc3ccc(C#N)cc3)c2n1", "note": "[Compound 140, 4-(((2,6-bis(bis(2-methoxyethyl)amino)-8-(4-methoxypiperidin-1-yl)pyrimido[5,4-d]pyrimidin-4-yl)amino)methyl)benzonitrile]", "IC50": "0.1 to 0.5"}, {"smiles": "COCCN(CCOC)c1nc(N2CCNC(=O)C2)c2nc(N(CCOC)CCOC)nc(N3CCC(OC)CC3)c2n1", "note": "[Compound 70, 4-(2,6-bis(bis(2-methoxyethyl)amino)-8-(4-methoxypiperidin-1-yl)pyrimido[5,4-d]pyrimidin-4-yl)piperazin-2-one]", "IC50": "0.5 to 1"}, {"smiles": "COCCN(CCOC)c1nc(N2CCC(OC)CC2)c2nc(N(CCO)CCCS(C)(=O)=O)nc(N3CCN(C)C(=O)C3)c2n1", "note": "[Compound 280, 4-(6-(bis(2-methoxyethyl)amino)-2-((2-hydroxyethyl)(3-(methylsulfonyl)propyl)amino)-8-(4-methoxypiperidin-1-yl)pyrimido[5,4-d]pyrimidin-4-yl)-1-methylpiperazin-2-one]", "IC50": "0.1 to 0.5"}, {"smiles": "COCCN(CCOC)c1nc(N2CC(=O)N(C)C(=O)C2)c2nc(N(CCO)CCO)nc(N3CCC(OC)CC3)c2n1", "note": "[Compound 308, 4-(6-(bis(2-hydroxyethyl)amino)-2-(bis(2-methoxyethyl)amino)-8-(4-methoxypiperidin-1-yl)pyrimido[5,4-d]pyrimidin-4-yl)-1-methylpiperazine-2,6-dione]", "IC50": "< 0.1"}, {"smiles": "COCCN(CCOC)c1nc(N2CCC(OC)CC2)c2nc(N(CCOC)CCOC)nc(NCC(C)C)c2n1", "note": "[Compound 127, N4-isobutyl-N2,N2,N6,N6-tetrakis(2-methoxyethyl)-8-(4-methoxypiperidin-1-yl)pyrimido[5,4-d]pyrimidine-2,4,6-triamine]", "IC50": "0.1 to 0.5"}, {"smiles": "COCCN(CCOC)c1nc(N2CCN(C)C(=O)C2)c2nc(N(CCOC)CCOC)nc(NCc3cccc(C#N)c3)c2n1", "note": "[Compound 205, 3-(((2,6-bis(bis(2-methoxyethyl)amino)-8-(4-methyl-3-oxopiperazin-1-yl)pyrimido[5,4-d]pyrimidin-4-yl)amino)methyl)benzonitrile]", "IC50": "< 0.1"}, {"smiles": "COCCN(CCCS(C)(=O)=O)c1nc(N2CCN(C)C(=O)C2)c2nc(N(CCOC)CCOC)nc(N3CCC(OC)CC3)c2n1", "note": "[Compound 289, 4-(6-(bis(2-methoxyethyl)amino)-2-((2-methoxyethyl)(3-(methylsulfonyl)propyl)amino)-8-(4-methoxypiperidin-1-yl)pyrimido[5,4-d]pyrimidin-4-yl)-1-methylpiperazin-2-one]", "IC50": "< 0.1"}, {"smiles": "COCCN(CCOC)c1nc(N2C[C@@H](C)O[C@@H](C)C2)c2nc(N(CCOC)CCOC)nc(N3CCC(OC)CC3)c2n1", "note": "[Compound 110, 4-((2R,6S)-2,6-dimethylmorpholino)-N2,N2,N6,N6-tetrakis(2-methoxyethyl)-8-(4-methoxypiperidin-1-yl)pyrimido[5,4-d]pyrimidine-2,6-diamine]", "IC50": "< 0.1"}, {"smiles": "COCCN(CCOC)c1nc(N2CC(=O)N(C)C(C)C2)c2nc(N(CCO)CCO)nc(N3CCC(OC)CC3)c2n1", "note": "(centres unmarked) [Compound 310, 4-(6-(bis(2-hydroxyethyl)amino)-2-(bis(2-methoxyethyl)amino)-8-(4-methoxypiperidin-1-yl)pyrimido[5,4-d]pyrimidin-4-yl)-1,6-dimethylpiperazin-2-one]", "IC50": "0.5 to 1"}, {"smiles": "COCCN(CCOC)c1nc(N2CCN(c3ncn(C)n3)CC2)c2nc(N(CCOC)CCOC)nc(N(C)Cc3cccc(S(N)(=O)=O)c3)c2n1", "note": "[Compound 248, 3-(((2,6-bis(bis(2-methoxyethyl)amino)-8-(4-(1-methyl-1H-1,2,4-triazol-3-yl)piperazin-1-yl)pyrimido[5,4-d]pyrimidin-4-yl)(methyl)amino)methyl)benzenesulfonamide]", "IC50": "0.1 to 0.5"}]}]}
